These are literature values, as cited in patent publication US20040115708A1, “Method of screening agents for the treatment and prevention of cancer and cachexia and the new use of specific agents for the treatment and prevention of cancer and cachexia” (priority 2002, published 2004).

For data set [1], the system named is 8-Hydroxy-deoxyguanosine (8-OH-dG) in lung DNA.
In data set [2] the test system is cancer in NNK treated animals. The following applies: consumption of EGCG.

Turning to `CN(CCCC(=O)c1cccnc1)N=O` [NNK, 4-(methyInitrosamino)-1-(3-pyridyl)-1-butanone], the “8-OH-dG (hydroxyl radical-caused DNA adduct) level” value in data set [1] (mice treated with NNK) was “elevated”.

(−)-epigallocatechin gallate: the “levels of 8-OH-dG in lung DNA” value in data set [1] (consumption of EGCG, NNK treated animals) is listed as “significantly lowers”. In data set [2], the incidence of cancer result is on record as “decreases”.
